In PMC6814236, “Monitoring and characterizing soluble and membrane-bound ectonucleotidases CD73 and CD39” (PLoS ONE, 2019):

How the values were obtained:
[1] = tested on: Adenosine 5'-Triphosphatase from porcine cerebral cortex (Na+/K+-ATPase)
Description: (§1) Enzyme tested are protein serine/threonine/tyrosine, lipid, sugar, and inorganic kinases, and K/Na ATPase. […] PKA, protein kinase A (solid circle), PKCα (solid square), Src, protein tyrosine Src kinase (solid triangle), Acka, acetate kinase from Escherichia coli (solid reverse triangle), HK, hexokinase from Saccharomyces cerevisiae (solid circle), PI3αKinase, p110α/p85α (square), K/K ATPase, Adenosine 5´-Triphosphatase from porcine cerebral cortex (circle), CD39 (ATP substrate, triangle), and CD39 (ADP substrate, reverse triangle); for CD73 (triangle) in panel B. Each point represents average of a typical experiment done in triplicates; results shown are mean ± SD.

[2] = tested on: T1, Acka, acetate kinase; assay: Inhibitor specificity against other enzymes: acetate kinase; format: biochemical, Escherichia coli
T1 construct: purchased Millipore Sigma
Description: as §1

[3] = tested on: T2, Src, protein tyrosine Src kinase; assay: Inhibitor specificity against other enzymes: Src; format: biochemical
T2 construct: purchased Promega
Description: as §1

[4] = molecular target: T3, CD39 (His-Tag Human) (Homo sapiens, UniProt P49961); assay: Enzyme activity of purified CD39 with ATP or ADP as substrate; format: biochemical; details: for inhibitory effect on purified CD39: 0.1ng CD39, 10 μM ATP or 10 μM ADP, 30min at 37°C
T3 construct: His; purchased R&D Systems
T3 sequence (P49961 1-510): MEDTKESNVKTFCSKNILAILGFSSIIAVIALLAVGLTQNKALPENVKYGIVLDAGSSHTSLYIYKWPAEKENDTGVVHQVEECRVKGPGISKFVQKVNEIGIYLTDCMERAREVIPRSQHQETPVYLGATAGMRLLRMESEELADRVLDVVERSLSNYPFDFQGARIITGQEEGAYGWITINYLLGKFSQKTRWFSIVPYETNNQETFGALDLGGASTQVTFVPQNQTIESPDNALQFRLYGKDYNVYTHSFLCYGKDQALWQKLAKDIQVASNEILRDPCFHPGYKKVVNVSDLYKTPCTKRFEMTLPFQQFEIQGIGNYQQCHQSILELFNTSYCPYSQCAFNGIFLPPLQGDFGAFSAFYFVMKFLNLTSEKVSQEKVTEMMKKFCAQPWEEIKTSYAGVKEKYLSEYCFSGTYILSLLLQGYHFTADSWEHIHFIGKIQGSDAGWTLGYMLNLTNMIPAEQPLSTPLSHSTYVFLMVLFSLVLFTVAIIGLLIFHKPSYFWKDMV
Description: • 2 Determination of enzyme activity of purified cytosolic cN-II. Activity of purified cN-II (Human cytosolic 5'-Nucleotidase) was determined using 25μl reaction buffer (50mM HEPES, pH 7.0, 100mM KCl, 20mM MgCl2, 5mM DTT, 2.5mM dATP, and 0.1mg/ml BSA) containing enzyme and AMP substrate at 10μM (96-well format). Reaction continued at 37°C for 60 minutes or for a certain time period and terminated by the addition of equal volume (25μl) of AMP-Glo™ Reagent I. Reactions were mixed well and incubated for additional 30 min at 23°C. This was followed by the addition of 50 μl of AMP Detection Solution (10μl of AMP-Glo™ Reagent II per ml of Kinase-Glo® One Solution) and incubated for additional 60 min at 23°C before reading luminescence. • 3 Determination of enzyme activity of purified CD39. […] When ATP is used as a substrate, an equal volume of Kinase-Glo® One Solution was added to CD39 reactions and incubated for 15 min before reading luminescence using a luminometer. When ADP is used as a substrate for CD39, after enzyme reaction completion, an equal volume of AMP Detection Solution with a known CD39 known inhibitor, such as POM 1 at 50μM final concentration was added. Reactions were mixed well and incubated for 60min before reading luminescence using luminometer. For enzyme dilution, reaction buffer can be used for dilution of enzymes.

[5] = tested on: T4, PKCα; assay: Inhibitor specificity against other enzymes: PKCα; format: biochemical
T4 construct: purchased Promega
Description: as §1

[6] = molecular target: T5, Recombinant Human 5'-Nucleotidase/CD73 (Homo sapiens, UniProt P21589); assay: Enzyme activity of purified CD73 (AMP-Glo assay); format: biochemical; details: for IC50: 0.1 ng CD73, 5min at 23°C
T5 construct: purchased R&D Systems
T5 sequence (P21589 27-574): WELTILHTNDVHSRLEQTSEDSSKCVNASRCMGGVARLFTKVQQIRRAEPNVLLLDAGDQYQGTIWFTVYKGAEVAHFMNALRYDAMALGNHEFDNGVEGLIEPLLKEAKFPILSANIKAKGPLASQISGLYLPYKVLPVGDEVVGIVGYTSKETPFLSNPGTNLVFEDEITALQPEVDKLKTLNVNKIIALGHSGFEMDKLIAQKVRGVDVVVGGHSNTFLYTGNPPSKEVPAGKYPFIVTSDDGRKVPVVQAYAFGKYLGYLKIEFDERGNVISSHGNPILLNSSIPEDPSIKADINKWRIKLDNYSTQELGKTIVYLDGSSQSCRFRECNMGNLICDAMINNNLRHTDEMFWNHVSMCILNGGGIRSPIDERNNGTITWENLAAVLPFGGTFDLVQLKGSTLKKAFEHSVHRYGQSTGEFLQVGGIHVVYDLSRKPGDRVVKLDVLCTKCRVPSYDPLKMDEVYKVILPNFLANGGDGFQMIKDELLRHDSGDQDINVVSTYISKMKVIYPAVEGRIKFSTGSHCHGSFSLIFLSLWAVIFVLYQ
Description: • Determination of enzyme activity of purified CD73. In a 25 μl reaction buffer (10mM HEPES, pH 7.4, 2mM MgCl2, 1mM CaCl2, and 0.1mg/ml BSA) containing enzyme and AMP substrate at 1μM to 10μM (96-well format), enzyme activity was performed at 23°C for specified time period and terminated by the addition of equal volume (25μl) of AMP-Glo™ Reagent I containing 50 μM (final concentration) of known CD73 inhibitor, such as AMPCP. Reactions were mixed well and incubated for additional 30 min at 23°C. This was followed by the addition of 50 μl of AMP Detection Solution (10μl of AMP-Glo™ Reagent II per ml of Kinase-Glo® One Solution) and incubated for additional 60 min at 23°C before reading luminescence.

[7] = tested on: T6, PKA, protein kinase A; assay: Inhibitor specificity against other enzymes: PKA; format: biochemical
T6 construct: purchased Promega
Description: as §1

[8] = tested on: T7, PI3αKinase, p110α/p85α; assay: Inhibitor specificity against other enzymes: PI3Kα; format: biochemical
T7 construct: purchased Promega
Description: as §1

[9] = tested on: HK, hexokinase; assay: Inhibitor specificity against other enzymes: hexokinase; format: biochemical, Saccharomyces cerevisiae
Description: as §1

[10] = tested on: luciferase; assay: Control test of the compound on luciferase activity; format: biochemical; details: control for assay interference
Description: Although we have not tested this assay using orthogonal assay, very recent publication used this technology (AMP Glo) to develop what they called “an exceptionally potent inhibitor of human […]” (Bowman CE, da Silva RG, Pham A, Young SW. An exceptionally potent inhibitor of human CD73. Biochemistry 2019; 58: 3331-3334) and compared their kinetic data using inorganic phosphate release and the data confirmed the validity of bioluminescence approach. Furthermore, since we launched ADP Glo for kinases and ATPases, it has been cited in over 1500 citations as well as numerus patents, and it is the main assay used for large scale screening for inhibitors in HTS laboratories. Besides, we have not found potent inhibitors of this assay other than few luciferase inhibitors which would be excluded when controls were run simultaneously. Protein concentration used in western blots for CD39 or CD39 in cells should be shown using either a housekeeping control, or the total protein concentration shown if other methods were used. Alternatively, a FACS based assay could be performed to show expression of cell surface […] or CD39.

Structure (SMILES)	inhibition of K+/Na+-ATPase [1]	inhibition of acetate kinase [2]	inhibition of Src [3]	inhibitory effect on purified CD39 [4]	inhibition of PKCα [5]	IC50 ([6]; 5 μM AMP)	IC50 ([6]; 10 μM AMP)	inhibition of PKA [7]	inhibition of PI3Kα [8]	inhibition of hexokinase [9]	effect on luciferase activity [10]	IC50 ([4]; 10 μM ADP as substrate, 0.1 ng enzyme)	effect on CD73 enzyme activity ([6]; purified CD73, 0.1ng, 1μM AMP, 5 min at 23°C (Fig 6))
Nc1ncnc2c1ncn2[C@@H]1O[C@H](COP(=O)(O)CP(=O)(O)O)[C@@H](O)[C@H]1O [AMP-CP, Adenosine 5'-(α, β-methylene) diphosphate]	no inhibition	no inhibition	no inhibition	no inhibitory effect	no inhibition	157 nM	300 nM	minimal inhibition	no inhibition	no inhibition	–	–	–
[Na+].[Na+].[Na+].[Na+].[Na+].[Na+].[O]=[W](=[O])([O-])[O-].[O]=[W](=[O])([O-])[O-].[O]=[W](=[O])([O-])[O-].[O]=[W](=[O])=[O].[O]=[W](=[O])=[O].[O]=[W](=[O])=[O].[O]=[W](=[O])=[O].[O]=[W](=[O])=[O].[O]=[W](=[O])=[O].[O]=[W](=[O])=[O].[O]=[W](=[O])=[O].[O]=[W](=[O])=[O] [POM1, Sodium metatungstate]	inhibited	inhibited	inhibited	inhibited	inhibited	–	–	inhibited	inhibited	inhibited	no inhibitory effect	3700 nM	no effect
